This is an account of results in BindingDB's records for doi:10.1021/jm970836l (Hokuriku University, 1998).

This assay has as its target coffee bean alpha-galactosidase (Coffea arabica) (UniProt Q42656). Description: Inhibitory activity measured against alpha-galactosidase of coffee bean by colorimetric assay using the p-nitrophenyl glycoside method.

Sequence of coffee bean alpha-galactosidase (Coffea arabica) (Q42656 whole entry, looked up): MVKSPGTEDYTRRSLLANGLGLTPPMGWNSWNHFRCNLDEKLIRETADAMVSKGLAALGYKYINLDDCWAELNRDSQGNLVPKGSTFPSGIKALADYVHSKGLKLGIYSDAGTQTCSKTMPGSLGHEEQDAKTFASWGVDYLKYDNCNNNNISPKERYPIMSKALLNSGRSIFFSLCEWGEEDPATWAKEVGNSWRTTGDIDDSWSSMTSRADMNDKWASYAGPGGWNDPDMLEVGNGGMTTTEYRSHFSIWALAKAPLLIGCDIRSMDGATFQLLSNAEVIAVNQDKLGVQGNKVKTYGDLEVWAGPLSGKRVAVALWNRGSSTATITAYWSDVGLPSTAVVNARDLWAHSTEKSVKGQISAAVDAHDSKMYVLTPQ

`OCC1NC(CO)[C@@H](O)C(O)C1O` (stereo partly drawn) [(R)-2,6-Bis-hydroxymethyl-piperidine-3,4,5-triol]: the IC50 (as a rule, the midpoint of a concentration-inhibition curve) stood at 6.4 µM.
The molecule `OC[C@H]1N[C@H](CO)[C@H](O)C(O)[C@H]1O` (some centres not stated) displayed a 50% inhibitory concentration (IC50) of 80 µM.
